What is called Ki is a dissociation constant, usually derived from enzyme kinetics or from competition with a known ligand. Low readings indicate tighter binding, high ones weaker binding.

The target of the test is 5-hydroxytryptamine receptor 6 (Homo sapiens, UniProt P50406).
Sequence of 5-hydroxytryptamine receptor 6 (P50406 whole entry): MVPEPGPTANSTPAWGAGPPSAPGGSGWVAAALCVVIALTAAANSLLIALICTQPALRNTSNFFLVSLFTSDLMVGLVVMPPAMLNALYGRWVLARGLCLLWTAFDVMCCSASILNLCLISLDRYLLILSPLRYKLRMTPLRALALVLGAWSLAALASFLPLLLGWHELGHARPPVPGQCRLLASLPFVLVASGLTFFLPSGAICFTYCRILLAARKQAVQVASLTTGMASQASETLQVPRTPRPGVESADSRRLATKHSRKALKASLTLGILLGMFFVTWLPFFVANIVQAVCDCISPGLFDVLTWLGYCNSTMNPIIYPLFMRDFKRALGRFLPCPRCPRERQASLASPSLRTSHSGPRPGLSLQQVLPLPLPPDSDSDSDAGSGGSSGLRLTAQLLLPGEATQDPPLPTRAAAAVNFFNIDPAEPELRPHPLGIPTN

Description: Antagonist activity at human recombinant 5HT6 receptor expressed in HEK293 cells assessed as inhibition of serotonin-induced cAMP accumulation after 2 hrs

In turn, `CNc1nn2c(C)cc(C)nc2c1S(=O)(=O)c1cccc(Cl)c1` showed a Ki of 0.186 nM.
Then `CNc1nn2ccc(C)nc2c1S(=O)(=O)c1ccccc1`, with 1.45 nM; and `CNc1nn2c(C)cc(C)nc2c1S(=O)(=O)c1ccc(OC)cc1`, with 9.55 nM; and `CSc1nn2c(C)cc(C)nc2c1S(=O)(=O)c1ccc(F)cc1`, with 6.76 nM.
In the case of `CSc1nn2c(C)cc(C)nc2c1S(=O)(=O)c1cccc(Cl)c1` it was 0.759 nM; in that of `CSc1nn2cccnc2c1S(=O)(=O)c1ccccc1`, 115 nM.
In the case of `CSc1nn2ccc(C)nc2c1S(=O)(=O)c1ccc(F)c(Cl)c1` it was 7.94 nM.
For `CSc1nn2cccnc2c1S(=O)(=O)c1ccc(F)cc1`, affinity was put at a Ki of 132 nM.
Then `CSc1nn2cccnc2c1S(=O)(=O)c1ccc(F)c(Cl)c1`, with 44.7 nM; and `CSc1nn2c(C)cc(C)nc2c1S(=O)(=O)c1ccccc1`, with 1.2 nM; and `CSc1nn2c(CO)cc(C)nc2c1S(=O)(=O)c1ccccc1`, with 0.562 nM.
`CSc1nn2c(C)cc(C)nc2c1S(=O)(=O)c1ccc(Cl)cc1` had a Ki of 3.16 nM.
In turn, `CNc1nn2c(C)cc(C)nc2c1S(=O)(=O)c1ccc(O)cc1` showed a Ki of 2 nM.
In the case of `CNc1nn2c(C)cc(C)nc2c1S(=O)(=O)c1ccccc1` it was 0.257 nM; in that of `CNc1nn2c(C)cc(C)nc2c1S(=O)(=O)c1ccc(F)c(Cl)c1`, 0.603 nM; in that of `CNc1nn2c(C)ccnc2c1S(=O)(=O)c1ccccc1`, 0.24 nM.
In the case of `CNc1nn2c(C)cc(C)nc2c1S(=O)(=O)c1ccc(F)cc1` it was 0.398 nM; in that of `CSc1nn2c(C)cc(C)nc2c1S(=O)(=O)c1ccc(N(C)C)cc1`, 37.2 nM; in that of `COCc1cc(C)n2nc(SC)c(S(=O)(=O)c3ccccc3)c2n1`, 3.24 nM.
In turn, `CNc1nn2c(C)cc(C)nc2c1S(=O)(=O)c1cccc(F)c1` had a Ki of 0.501 nM.
Then `CSc1nn2c(C)ccnc2c1S(=O)(=O)c1ccccc1`, with 16.6 nM; and `CNc1nn2cccnc2c1S(=O)(=O)c1ccc(F)cc1`, with 11.7 nM; and `CSc1nn2ccc(C)nc2c1S(=O)(=O)c1ccccc1`, with 16.6 nM.
Compound `CNc1nn2c(COC)cc(C)nc2c1S(=O)(=O)c1ccccc1` showed a Ki of 7.59 nM.
Then `CNc1nn2cccnc2c1S(=O)(=O)c1cccc(Cl)c1`, with 1.17 nM; and `CSc1nn2c(C)cc(C)nc2c1S(=O)(=O)c1cccc(F)c1`, with 1.07 nM; and `COCc1cc(C)nc2c(S(=O)(=O)c3ccccc3)c(SC)nn12`, with 155 nM.
In the case of `CNc1nn2c(C)cc(CO)nc2c1S(=O)(=O)c1ccccc1` it was 0.479 nM; in that of `CSc1nn2c(C)cc(CO)nc2c1S(=O)(=O)c1ccccc1`, 2.14 nM; in that of `CNc1nn2cccnc2c1S(=O)(=O)c1ccccc1`, 3.89 nM.
Take `CSc1nn2c(C)cc(C)nc2c1S(=O)(=O)c1ccc(F)c(Cl)c1`: the Ki was 3.8 nM.
In the case of `CSc1nn2cccnc2c1S(=O)(=O)c1cccc(Cl)c1` it was 15.1 nM; in that of `CSc1nn2c(C)cc(C)nc2c1S(=O)(=O)c1ccc(O)cc1`, 3.98 nM.
Then `CNc1nn2c(C)cc(COC)nc2c1S(=O)(=O)c1ccccc1`, with 0.269 nM.
In the case of `CNc1nn2c(CO)cc(C)nc2c1S(=O)(=O)c1ccccc1` it was 0.282 nM.
`COc1ccc(S(=O)(=O)c2c(SC)nn3c(C)cc(C)nc23)cc1` had a Ki of 37.2 nM.

Source of the values: ChEMBL document CHEMBL1667859 (Bioorg Med Chem, 2011).
